Tested on: 966289-007-R4-J1-PDC complex spheroid viability
Assay: Anticancer human tumor 966289-007-R4-J1-PDC patient-derived pancreatic adenocarcinoma cell line growth inhibition [RAS]
Conditions: for viability, T/C: stronger effect = lower value
How it was run: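 Tumour cells grown as complex spheroids with HUVEC endothelial cells and mesenchymal stem cells, treated with RAS pathway inhibitor combinations. Each agent spans half-log steps from near clinical Cmax, or 10 microM where Cmax is unknown.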
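Note: spheroids exposed to agents for one week before readout.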
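Throughout, for viability, T/C: percent viability relative to DMSO vehicle control wells as 100%.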

Question: `CC1(C)CCC(Nc2ncc(C(F)(F)F)c(-c3c[nH]c4c(P(C)(C)=O)c(C#N)ccc34)n2)CN1` (stereo unspecified) + CCn1c(-c2cccnc2C(C)OC)c2c3cc(ccc31)N1CCOC(CC(NC(=O)C(C(C)C)N(C)C(=O)C3(F)CCN(C(=O)C#CC(C)(C)N(C)C)CC3)C(=O)N3CCCC(N3)C(=O)OCC(C)(C)C2)C1 was tested. Which IC50 (curve of first compound, second compound 0.000949 µM) did it give?
Answer: 4.98 nM

Question: And the IC50 (curve of first compound, second compound 0.003 µM)?
Answer: 5.32 nM

Question: What about the IC50 (curve of first compound, second compound 0.00949 µM) of the same compound?
Answer: 4.93 nM

Question: And the IC50 (curve of first compound, second compound 0.03 µM)?
Answer: 3.82 nM

Question: And the IC50 (curve of first compound, second compound 0.0949 µM)?
Answer: 4.06 nM

Question: What about the IC50 (curve of first compound, second compound 0.3 µM) of the same compound?
Answer: 2.89 nM

Question: And the viability, T/C (second compound 0.000949 µM, first compound 0.000949 µM)?
Answer: 136%

Question: And the viability, T/C (second compound 0.000949 µM, first compound 0.003 µM)?
Answer: 75.5%

Question: And the viability, T/C (second compound 0.000949 µM, first compound 0.00949 µM)?
Answer: 17.6%

Question: And the viability, T/C (second compound 0.000949 µM, first compound 0.03 µM)?
Answer: 7.64%

Question: And the viability, T/C (second compound 0.000949 µM, first compound 0.0949 µM)?
Answer: 5.45%

Question: What about the viability, T/C (second compound 0.000949 µM, first compound 0.3 µM) of the same compound?
Answer: 7.38%

Question: What about the viability, T/C (second compound 0.003 µM, first compound 0.000949 µM) of the same compound?
Answer: 90.5%

Question: And the viability, T/C (second compound 0.003 µM, first compound 0.003 µM)?
Answer: 77.4%

Question: What about the viability, T/C (second compound 0.003 µM, first compound 0.00949 µM) of the same compound?
Answer: 22.3%

Question: And the viability, T/C (second compound 0.003 µM, first compound 0.03 µM)?
Answer: 7.6%

Question: And the viability, T/C (second compound 0.003 µM, first compound 0.0949 µM)?
Answer: 5.79%

Question: And the viability, T/C (second compound 0.003 µM, first compound 0.3 µM)?
Answer: 7.11%

Question: And the viability, T/C (second compound 0.00949 µM, first compound 0.000949 µM)?
Answer: 83.3%

Question: And the viability, T/C (second compound 0.00949 µM, first compound 0.003 µM)?
Answer: 75.1%

Question: What about the viability, T/C (second compound 0.00949 µM, first compound 0.00949 µM) of the same compound?
Answer: 16.9%

Question: And the viability, T/C (second compound 0.00949 µM, first compound 0.03 µM)?
Answer: 8.28%

Question: And the viability, T/C (second compound 0.00949 µM, first compound 0.0949 µM)?
Answer: 5.11%

Question: What about the viability, T/C (second compound 0.00949 µM, first compound 0.3 µM) of the same compound?
Answer: 5.09%

Question: What about the viability, T/C (second compound 0.03 µM, first compound 0.000949 µM) of the same compound?
Answer: 72%

Question: What about the viability, T/C (second compound 0.03 µM, first compound 0.003 µM) of the same compound?
Answer: 59.6%

Question: And the viability, T/C (second compound 0.03 µM, first compound 0.00949 µM)?
Answer: 13.6%

Question: And the viability, T/C (second compound 0.03 µM, first compound 0.03 µM)?
Answer: 5.23%

Question: What about the viability, T/C (second compound 0.03 µM, first compound 0.0949 µM) of the same compound?
Answer: 4.63%

Question: What about the viability, T/C (second compound 0.03 µM, first compound 0.3 µM) of the same compound?
Answer: 3.91%

Question: What about the viability, T/C (second compound 0.0949 µM, first compound 0.000949 µM) of the same compound?
Answer: 71.8%

Question: And the viability, T/C (second compound 0.0949 µM, first compound 0.003 µM)?
Answer: 65.2%

Question: What about the viability, T/C (second compound 0.0949 µM, first compound 0.00949 µM) of the same compound?
Answer: 7.56%

Question: And the viability, T/C (second compound 0.0949 µM, first compound 0.03 µM)?
Answer: 3.47%

Question: And the viability, T/C (second compound 0.0949 µM, first compound 0.0949 µM)?
Answer: 3.17%

Question: And the viability, T/C (second compound 0.0949 µM, first compound 0.3 µM)?
Answer: 3.37%

Question: And the viability, T/C (second compound 0.3 µM, first compound 0.000949 µM)?
Answer: 62.6%

Question: And the viability, T/C (second compound 0.3 µM, first compound 0.003 µM)?
Answer: 49.6%

Question: What about the viability, T/C (second compound 0.3 µM, first compound 0.00949 µM) of the same compound?
Answer: 6.28%

Question: What about the viability, T/C (second compound 0.3 µM, first compound 0.03 µM) of the same compound?
Answer: 2.91%

Question: And the viability, T/C (second compound 0.3 µM, first compound 0.0949 µM)?
Answer: 2.13%

Question: And the viability, T/C (second compound 0.3 µM, first compound 0.3 µM)?
Answer: 1.99%

Question: Which results are given for `CC(=O)OC12COC1CC(O)C1(C)C(=O)C(O)C3=C(C)C(OC(=O)C(O)C(NC(=O)OC(C)(C)C)c4ccccc4)CC(O)(C(OC(=O)c4ccccc4)C21)C3(C)C` (stereo unspecified)?
Answer: viability, T/C (compound 0.0316 µM): 7.82% [middle of 4 runs]; viability, T/C (compound 0.1 µM): 14.1% [middle of 4 runs]; viability, T/C (compound 0.316 µM): 15.4% [middle of 4 runs]; viability, T/C (compound 1 µM): 19.7% [middle of 4 runs]; viability, T/C (compound 3.16 µM): 38.3% [middle of 4 runs]; viability, T/C (compound 10 µM): 67% [middle of 4 runs]; IC50 (curve of compound): < 31.6 nM

Question: Which IC50 (curve of first compound, second compound 0.00316 µM) does the source give for `Nc1ccn(C2OC(CO)C(O)C2(F)F)c(=O)n1` (stereo unspecified) + C=CC(=O)N1CCN(c2nc(OCC3CCCN3C)nc3c(F)c(-c4nc(N)cc(C)c4C(F)(F)F)c(Cl)cc23)C(C)C1 here?
Answer: 6.89 nM

Question: What about the IC50 (curve of first compound, second compound 0.01 µM) of the same compound?
Answer: 8.14 nM

Question: What about the IC50 (curve of first compound, second compound 0.0316 µM) of the same compound?
Answer: 6.88 nM

Question: And the IC50 (curve of first compound, second compound 0.1 µM)?
Answer: 6.58 nM

Question: What about the IC50 (curve of first compound, second compound 0.316 µM) of the same compound?
Answer: 6.55 nM

Question: And the IC50 (curve of first compound, second compound 1 µM)?
Answer: 6.83 nM

Question: What about the viability, T/C (second compound 0.00316 µM, first compound 0.00316 µM) of the same compound?
Answer: 108%

Question: What about the viability, T/C (second compound 0.00316 µM, first compound 0.01 µM) of the same compound?
Answer: 22.2%

Question: And the viability, T/C (second compound 0.00316 µM, first compound 0.0316 µM)?
Answer: 1.32%

Question: And the viability, T/C (second compound 0.00316 µM, first compound 0.1 µM)?
Answer: 1.25%

Question: What about the viability, T/C (second compound 0.00316 µM, first compound 0.316 µM) of the same compound?
Answer: 1.36%

Question: What about the viability, T/C (second compound 0.00316 µM, first compound 1 µM) of the same compound?
Answer: 1.34%

Question: And the viability, T/C (second compound 0.01 µM, first compound 0.00316 µM)?
Answer: 113%

Question: And the viability, T/C (second compound 0.01 µM, first compound 0.01 µM)?
Answer: 36.4%

Question: And the viability, T/C (second compound 0.01 µM, first compound 0.0316 µM)?
Answer: 1.5%

Question: What about the viability, T/C (second compound 0.01 µM, first compound 0.1 µM) of the same compound?
Answer: 1.37%

Question: And the viability, T/C (second compound 0.01 µM, first compound 0.316 µM)?
Answer: 1.44%

Question: And the viability, T/C (second compound 0.01 µM, first compound 1 µM)?
Answer: 1.42%

Question: And the viability, T/C (second compound 0.0316 µM, first compound 0.00316 µM)?
Answer: 100%

Question: And the viability, T/C (second compound 0.0316 µM, first compound 0.01 µM)?
Answer: 25.8%

Question: And the viability, T/C (second compound 0.0316 µM, first compound 0.0316 µM)?
Answer: 1.29%

Question: And the viability, T/C (second compound 0.0316 µM, first compound 0.1 µM)?
Answer: 1.37%

Question: And the viability, T/C (second compound 0.0316 µM, first compound 0.316 µM)?
Answer: 1.47%

Question: What about the viability, T/C (second compound 0.0316 µM, first compound 1 µM) of the same compound?
Answer: 1.19%

Question: What about the viability, T/C (second compound 0.1 µM, first compound 0.00316 µM) of the same compound?
Answer: 89.6%

Question: What about the viability, T/C (second compound 0.1 µM, first compound 0.01 µM) of the same compound?
Answer: 27.3%

Question: And the viability, T/C (second compound 0.1 µM, first compound 0.0316 µM)?
Answer: 1.5%

Question: And the viability, T/C (second compound 0.1 µM, first compound 0.1 µM)?
Answer: 1.39%

Question: And the viability, T/C (second compound 0.1 µM, first compound 0.316 µM)?
Answer: 1.15%

Question: What about the viability, T/C (second compound 0.1 µM, first compound 1 µM) of the same compound?
Answer: 1.1%

Question: What about the viability, T/C (second compound 0.316 µM, first compound 0.00316 µM) of the same compound?
Answer: 93.6%

Question: What about the viability, T/C (second compound 0.316 µM, first compound 0.01 µM) of the same compound?
Answer: 24.8%

Question: And the viability, T/C (second compound 0.316 µM, first compound 0.0316 µM)?
Answer: 1.51%

Question: What about the viability, T/C (second compound 0.316 µM, first compound 0.1 µM) of the same compound?
Answer: 1.29%

Question: What about the viability, T/C (second compound 0.316 µM, first compound 0.316 µM) of the same compound?
Answer: 1.52%

Question: And the viability, T/C (second compound 0.316 µM, first compound 1 µM)?
Answer: 1.25%

Question: And the viability, T/C (second compound 1 µM, first compound 0.00316 µM)?
Answer: 93.5%

Question: And the viability, T/C (second compound 1 µM, first compound 0.01 µM)?
Answer: 28.4%

Question: What about the viability, T/C (second compound 1 µM, first compound 0.0316 µM) of the same compound?
Answer: 1.78%

Question: And the viability, T/C (second compound 1 µM, first compound 0.1 µM)?
Answer: 1.63%

Question: And the viability, T/C (second compound 1 µM, first compound 0.316 µM)?
Answer: 1.74%

Question: And the viability, T/C (second compound 1 µM, first compound 1 µM)?
Answer: 1.61%
